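Five concentrations, 48 hours, 96-well plates. GI50 marks 50% less growth.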 The source made the active and inactive calls. Rule as the data show it: active = GI50 up to about 1.1 µM and inactive = higher.
What was measured:
Experiment in all cases: NCI-60 cell line screen, 48 h
[1] = test system: SNB-19
[2] = test system: OVCAR-3
[3] = test system: PC-3
[4] = test system: MCF7
[5] = test system: HCC 2998
[6] = test system: UACC-62
[7] = test system: NCI-H522
[8] = test system: KM12
[9] = test system: HOP-92
[10] = test system: EKVX
[11] = test system: SF-295
[12] = test system: DU-145
[13] = test system: HCT-116
[14] = test system: SK-MEL-28
[15] = test system: SN12C
[16] = test system: OVCAR-4
[17] = test system: 786-0
[18] = test system: UACC-257
[19] = test system: U-251
[20] = test system: MDA-MB-231

Measured: GI50

CCOC(=O)c1c(CN2CCNCC2)nc2ccc(Cl)cc2c1-c1ccccc1
inactive: [1] 12.8 µM | [2] 6.95 µM | [3] 2.54 µM | [4] 11 µM | [5] 1.6 µM | [6] 1.77 µM | [7] 4.38 µM | [8] 3.44 µM | [9] 1.17 µM | [10] 9.38 µM | [11] 2.24 µM | [12] 16.2 µM | [13] 3.07 µM | [14] 3.83 µM | [15] 4.92 µM | [16] 3.72 µM | [17] 1.65 µM | [18] 1.81 µM | [19] 12.9 µM

OCC(O)C1OC2CC1Nc1ccccc1N2 (centres undefined)
inactive: [1] > 100 µM | [2] > 100 µM | [3] > 100 µM | [5] > 100 µM | [6] > 100 µM | [7] > 100 µM | [8] > 100 µM | [20] > 100 µM | [9] > 100 µM | [10] > 100 µM | [11] > 100 µM | [12] > 100 µM | [13] > 100 µM | [14] > 100 µM | [15] > 100 µM | [17] > 100 µM | [18] > 100 µM | [19] > 100 µM

Cc1ccc(Cc2n[nH]c(=O)n2Nc2ccccc2)cc1
inactive: [1] > 100 µM | [2] > 100 µM | [4] > 100 µM | [5] > 100 µM | [6] > 100 µM | [7] > 100 µM | [8] > 100 µM | [20] > 100 µM | [9] 65.2 µM | [10] 81.5 µM | [11] > 100 µM | [12] > 100 µM | [13] > 100 µM | [14] 92.3 µM | [15] > 100 µM | [16] > 100 µM | [17] > 100 µM | [18] > 100 µM | [19] > 100 µM

Cc1ccc(-c2cn3c(nc4ccccc43)c(/C=C/c3ccco3)n2)cc1
inactive: [1] > 100 µM | [2] 49.8 µM | [4] 29.6 µM | [5] > 100 µM | [6] > 100 µM | [8] 50.1 µM | [20] > 100 µM | [9] > 100 µM | [12] > 100 µM | [13] > 100 µM | [14] 58.1 µM | [15] 86.9 µM | [16] 56.8 µM | [17] 48 µM | [18] 82.6 µM | [19] 60.5 µM

CCOP(=O)(OCC)c1ccc(=O)[nH]c1-c1cccs1
inactive: [1] > 100 µM | [2] > 100 µM | [3] > 100 µM | [4] > 100 µM | [5] > 100 µM | [6] > 100 µM | [7] > 100 µM | [8] > 100 µM | [9] > 100 µM | [10] > 100 µM | [11] > 100 µM | [12] > 100 µM | [13] > 100 µM | [14] > 100 µM | [15] > 100 µM | [16] > 100 µM | [17] > 100 µM | [18] > 100 µM | [19] > 100 µM

CCC(C)OC(=O)C1C2CCC(O2)C1C(=O)O (centres undefined)
inactive: [1] > 100 µM | [2] > 100 µM | [5] > 100 µM | [6] > 100 µM | [7] > 100 µM | [8] > 100 µM | [9] > 66.4 µM | [10] > 100 µM | [11] > 100 µM | [13] > 40.6 µM | [14] > 100 µM | [15] > 100 µM | [16] > 100 µM | [17] > 44.2 µM | [18] > 70.5 µM | [19] > 44.3 µM

CCOC1=C2N=C(C(CC)c3ccc(F)cc3)N=C2C(=O)c2ccccc21 (centres undefined)
inactive: [1] 51.4 µM | [2] 32.9 µM | [5] 29.9 µM | [6] 10.9 µM | [7] 22.3 µM | [8] 21.9 µM | [9] 17.7 µM | [10] 26.9 µM | [11] 21 µM | [13] 23.9 µM | [14] 36.5 µM | [15] 16.3 µM | [16] 19.7 µM | [17] 29.9 µM | [18] 20.2 µM | [19] 21.7 µM

O=C(O)CCC(NC(=O)c1ccc(Nc2nc3ccccc3nc2C(=O)O)cc1)C(=O)O (centres undefined)
inactive: [1] > 100 µM | [2] > 100 µM | [4] > 100 µM | [5] > 100 µM | [6] > 100 µM | [7] > 100 µM | [8] > 100 µM | [20] > 100 µM | [9] > 100 µM | [10] > 100 µM | [11] > 100 µM | [12] > 100 µM | [13] > 100 µM | [14] > 100 µM | [15] > 100 µM | [16] > 100 µM | [17] > 100 µM | [18] > 100 µM | [19] > 100 µM

CCOC(=O)c1[nH]c2nc(SC)nc(NC)c2c1N
inactive: [1] > 100 µM | [2] > 100 µM | [3] > 100 µM | [5] 87.5 µM | [6] 85.7 µM | [7] 51.4 µM | [8] > 100 µM | [20] > 100 µM | [11] > 100 µM | [12] > 100 µM | [13] > 100 µM | [14] > 100 µM | [15] > 100 µM | [16] > 100 µM | [17] > 100 µM | [18] > 100 µM | [19] > 100 µM

C/C(=N\NC(=O)c1ccncc1)c1ccccc1F
inactive: [1] > 10 µM | [2] > 10 µM | [3] > 10 µM | [4] > 10 µM | [5] > 10 µM | [8] > 10 µM | [9] 2.37 µM | [11] > 10 µM | [13] > 10 µM | [14] > 10 µM | [15] > 10 µM | [17] > 10 µM | [19] > 10 µM

CC(C)(Sc1cc(C(C)(C)C)c(O)c(C(C)(C)C)c1)Sc1cc(C(C)(C)C)c(O)c(C(C)(C)C)c1 [PROBUCOL]
inactive: [1] > 100 µM | [3] > 100 µM | [4] > 100 µM | [6] > 100 µM | [7] > 100 µM | [8] > 100 µM | [20] > 100 µM | [10] 4.57 µM | [11] > 100 µM | [12] > 100 µM | [13] > 100 µM | [14] > 100 µM | [15] > 100 µM | [16] > 100 µM | [17] > 100 µM | [18] > 100 µM | [19] > 100 µM

Source: ChEMBL document CHEMBL1201862, “PubChem BioAssay data set” (2004)
